# pIC50: −log10 of the molar value. Where no end group is shown, it is not given here. [ ]: non-standard residue; d: D form. pGlu = O=C1CC[C@@H](C(=O)O)N1
# Experiments:
# [1] = system: angiotensin conversion enzyme and peptidases; assay: Stability: resistance of peptides to angiotensin conversion enzyme and to peptidases; type: in vitro ADME; details: after 3 hours of incubation
# Description: The stability of peptides of formula (B) and (C) has been verified by determining the resistance of said peptides to the angiotensin conversion enzyme and to peptidases.
# [2] = target: T1, angiotensin conversion enzyme (Oryctolagus cuniculus, UniProt P12822); assay: Inhibition of angiotensin conversion enzyme in vitro (method of Cushman and Cheung); type: biochemical; details: enzyme isolated from rabbit lungs; read-out: I50
# T1 construct: with the enzyme isolated from rabbit lungs; from tissue; host or cells: rabbit lungs
# T1 sequence (P12822 34-1310): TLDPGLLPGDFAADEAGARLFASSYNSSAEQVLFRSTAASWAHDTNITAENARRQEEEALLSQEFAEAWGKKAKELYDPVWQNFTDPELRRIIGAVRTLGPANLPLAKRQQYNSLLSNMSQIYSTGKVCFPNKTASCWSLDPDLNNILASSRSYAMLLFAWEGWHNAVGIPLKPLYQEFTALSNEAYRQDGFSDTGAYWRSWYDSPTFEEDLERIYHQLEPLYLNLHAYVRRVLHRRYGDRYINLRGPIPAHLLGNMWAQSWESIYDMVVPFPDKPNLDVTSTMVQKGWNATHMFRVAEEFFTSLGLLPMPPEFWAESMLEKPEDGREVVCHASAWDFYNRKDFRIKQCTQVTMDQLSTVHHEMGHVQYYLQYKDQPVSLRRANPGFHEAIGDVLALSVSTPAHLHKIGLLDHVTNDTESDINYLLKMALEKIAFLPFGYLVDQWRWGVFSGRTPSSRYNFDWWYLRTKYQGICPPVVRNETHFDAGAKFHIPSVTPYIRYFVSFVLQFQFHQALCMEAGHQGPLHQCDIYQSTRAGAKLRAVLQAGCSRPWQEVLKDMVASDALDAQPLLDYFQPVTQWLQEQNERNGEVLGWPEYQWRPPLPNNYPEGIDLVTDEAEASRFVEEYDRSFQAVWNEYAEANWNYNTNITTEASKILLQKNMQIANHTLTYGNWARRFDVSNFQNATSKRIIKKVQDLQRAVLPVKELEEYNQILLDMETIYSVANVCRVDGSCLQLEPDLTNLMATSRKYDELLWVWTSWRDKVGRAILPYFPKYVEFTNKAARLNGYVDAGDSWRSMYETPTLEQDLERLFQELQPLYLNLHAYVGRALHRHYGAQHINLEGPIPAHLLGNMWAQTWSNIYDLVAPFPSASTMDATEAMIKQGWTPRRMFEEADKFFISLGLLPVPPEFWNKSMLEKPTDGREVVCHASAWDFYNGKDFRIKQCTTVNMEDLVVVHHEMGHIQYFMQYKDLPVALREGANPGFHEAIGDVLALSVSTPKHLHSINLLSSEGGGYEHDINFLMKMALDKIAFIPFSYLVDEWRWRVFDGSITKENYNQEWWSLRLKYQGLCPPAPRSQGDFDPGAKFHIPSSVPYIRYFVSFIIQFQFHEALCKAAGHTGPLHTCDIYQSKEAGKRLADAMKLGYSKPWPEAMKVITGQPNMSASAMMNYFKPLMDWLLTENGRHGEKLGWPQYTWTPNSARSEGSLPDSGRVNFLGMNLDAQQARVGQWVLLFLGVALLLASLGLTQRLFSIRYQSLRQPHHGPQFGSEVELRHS
# Description: The inhibition of angiotensin conversion enzyme by the compounds corresponding to general formula (I) is measured, in vitro, with the enzyme isolated from rabbit lungs according to the method by Cushman and Cheung [Biochem.-Pharmacol., 20, 1637, (1971)].
# In Table 1 the values of I50 (μM) obtained by using the retroinverted analogues and natural not-modified peptide, which is used as the comparison term, are reported.
# [3] = system: angiotensin conversion enzyme; details: 15 minutes of preincubation with the enzyme; cited from earlier work
Compound,resistance towards enzymatic degradation [1],pIC50 [2],loss of inhibiting activity [3]
"C[C@@H](C(=O)N[C@H](Cc1ccccc1)C(=O)N[C@H](CCCCN)C(=O)N[C@@H]1CCC(=O)N1)C(=O)N1C[C@@H](Sc2ccccc2)C[C@H]1C(=O)O [B, gGlp--Dlys--DPhe--(S)m Ala--Pro--(4-allo--SPh)--OH]",resistant,5.12,–
Glp-Lys-Trp-Ala-Pro ([pGlu]KWAP) [BPP5a],–,–,complete loss
